Values after ≈ are worked out from the molar mass of the structure shown.

The subject of data set [1] is Staphylococcus epidermidis. The data set is described as follows: Antibacterial activity against Staphylococcus epidermidis ATCC 12228 assessed as reduction in bacterial growth measured after 24 hrs by broth microdilution method. It counts as functional. (In general: Dilution methods test growth across graded concentrations, often in twofold steps.)
The test system of data set [2] is Staphylococcus aureus. The data set is described as follows: Antibacterial activity against Staphylococcus aureus ATCC 29213 assessed as bacterial growth inhibition incubated for 24 hrs by broth dilution method. In kind it is functional.
In data set [3] the test system is Staphylococcus aureus. The data set is described as follows: Antibacterial activity against methicillin-resistant Staphylococcus aureus ATCC 3300 assessed as reduction in microbial growth measured after 24 hrs by broth microdilution analysis. It counts as functional.
The subject of data set [4] is Escherichia coli. The data set is described as follows: Antibacterial activity against Escherichia coli. It counts as functional.
Data set [5] deals with Streptococcus pneumoniae. The data set can be described thus: Antibacterial activity against Streptococcus pneumoniae. It counts as functional.
The test system of data set [6] is Staphylococcus aureus. The data set is described as follows: Antibacterial activity against Methicillin-resistant Staphylococcus aureus assessed as reduction in microbial growth by Muller Hinton broth based dilution assay. It counts as functional.
Data set [7] has as its system MCF7. The data set is described as follows: Anticancer activity against human MCF7 cells assessed as inhibition of cell proliferation measured after 48 hrs by MTT assay. In kind it is functional, cell-based. The note with it: MCF7, 48 h.
Data set [8] relates to HT-29. The data set can be described thus: Anticancer activity against human HT-29 cells assessed as inhibition of cell proliferative measured after 48 hrs by MTT assay. It counts as functional, cell-based. The note with it: HT-29, 48 h.
In data set [9] the test system is Staphylococcus aureus. The data set can be described thus: Antibacterial activity against Staphylococcus aureus ATCC 25923 assessed as inhibition of bacterial growth incubated for 24 hrs by CLSI based broth microdilution method. It counts as functional.
The subject of data set [10] is Enterococcus faecalis. The data set can be described thus: Antibacterial activity against Enterococcus faecalis ATCC 29212 assessed as inhibition of bacterial growth incubated for 24 hrs by CLSI based broth microdilution method. In kind it is functional.
In data set [11] the test system is Streptococcus pneumoniae. The data set can be described thus: Antibacterial activity against Streptococcus pneumoniae ATCC 49619 assessed as inhibition of bacterial growth incubated for 24 hrs by CLSI based broth microdilution method. In kind it is functional.
In data set [12] the test system is Bacillus subtilis. The data set is described as follows: Antibacterial activity against Bacillus subtilis ATCC 6633 assessed as inhibition of bacterial growth incubated for 24 hrs by CLSI based broth microdilution method. It counts as functional.
The subject of data set [13] is Staphylococcus aureus. The data set is described as follows: Antibacterial activity against Staphylococcus aureus ATCC 29213 assessed as reduction in microbial growth measured after 24 hrs by broth microdilution analysis. It counts as functional.
Data set [14] has as its system Staphylococcus aureus. The data set can be described thus: In vivo antibacterial activity against Staphylococcus aureus UC9213 infected in PO dosed mouse assessed as reduction in bacterial infection measured after 6 days by hematoxylin and eosin staining based microscopic analysis. To be noted: UC9213, 144 h, time 6 day. In kind it is functional.
The test system of data set [15] is Staphylococcus aureus. The data set can be described thus: Antibacterial activity against Staphylococcus aureus UC9213 assessed as reduction in bacterial growth. In kind it is functional.
Data set [16] has as its system Staphylococcus aureus. The data set is described as follows: Antibacterial activity against fluoroquinolone/methicillin resistant Staphylococcus aureus clinical isolate 19-26 assessed as bacterial growth inhibition measured after 16 to 18 hrs by serial dilution method. In kind it is functional. The note with it: time 16-18 hrs.
Data set [17] has as its system Staphylococcus aureus. The data set can be described thus: Antibacterial activity against vancomycin-resistant Staphylococcus aureus assessed as bacterial growth inhibition measured after 16 to 18 hrs by serial dilution method. In kind it is functional. To be noted: time 16-18 hrs.
In data set [18] the test system is Mycobacterium tuberculosis. The data set is described as follows: Antimycobacterial activity against Mycobacterium tuberculosis H37Rv assessed as reduction in bacterial cell growth by resazurin reduction method. It counts as functional. For orientation: The colour change of resazurin is a common sign of viable cells or microbes.
A short description of data set [19]: Clearance in CF1 mouse. In kind it is ADME. To be noted: in vivo.
For data set [20], the system named is Staphylococcus aureus. The data set is described as follows: Antibacterial activity against Methicillin-resistant Staphylococcus aureus assessed as inhibition of bacterial growth. In kind it is functional.
Data set [21] deals with Staphylococcus aureus. The data set is described as follows: Antibacterial activity against methicillin-susceptible Staphylococcus aureus assessed as inhibition of bacterial growth. It counts as functional.
Data set [22] relates to Staphylococcus aureus. The data set is described as follows: Antibacterial activity against Staphylococcus aureus ATCC 25923 assessed as growth inhibition measured after 18 hrs by CLSI based method. In kind it is functional.
For data set [23], the system named is Streptococcus pneumoniae. The data set can be described thus: Antibacterial activity against Streptococcus pneumoniae ATCC 49619 assessed as reduction in bacterial growth measured after 18 hrs by CLSI based analysis. It counts as functional.
Data set [24] has as its system Streptococcus pyogenes. The data set is described as follows: Antibacterial activity Streptococcus pyogenes ATCC 12344 assessed as reduction in microbial growth by broth microdilution method. In kind it is functional.
For data set [25], the system named is Moraxella catarrhalis. The data set is described as follows: Antibacterial activity against wild type Moraxella catarrhalis incubated for 20 hrs by two-fold serial dilution method. In kind it is functional.
Data set [26] deals with Haemophilus influenzae. The data set is described as follows: Antibacterial activity against Haemophilus influenzae ATCC 49247 by broth microdilution method. It counts as functional.
In data set [27] the test system is Mycobacterium tuberculosis. The data set is described as follows: Antimycobacterial activity against Mycobacterium tuberculosis assessed as reduction in bacterial growth. In kind it is functional.
Data set [28] concerns Mycobacterium tuberculosis. The data set is described as follows: Antimycobacterial activity against Mycobacterium tuberculosis H37Rv assessed as reduction in bacterial growth incubated for 7 days by resazurin based assay. It counts as functional. The note with it: 168 h, time 7 day.
Data set [29] relates to PC-3. The data set is described as follows: Inhibition of mitochondrial protein synthesis in human PC-3 cells at 100 uM incubated for 5 days. The note with it: PC-3, 120 h. In kind it is functional, cell-based.
In data set [30] the test system is Staphylococcus aureus. The data set is described as follows: Antibacterial activity against methicillin-resistant Staphylococcus aureus ATCC 4330 assessed as reduction in microbial growth incubated for 18 hrs by broth microdilution method. In kind it is functional.
Data set [31] concerns Staphylococcus epidermidis. The data set is described as follows: Antibacterial activity against methicillin-resistant Staphylococcus epidermidis ATCC 12228 assessed as reduction in microbial growth incubated for 18 hrs by broth microdilution method. In kind it is functional.
Data set [32] has as its system Staphylococcus aureus. The data set can be described thus: Antibacterial activity against vancomycin-resistant Staphylococcus aureus clinical isolate 1 assessed as inhibition of bacterial growth by broth microdilution method. In kind it is functional.
Data set [33] deals with Enterococcus faecium. The data set can be described thus: Antibacterial activity against Enterococcus faecium ATCC 19434 assessed as reduction in microbial growth after 24 hrs by two-fold serial dilution method. It counts as functional.
For data set [34], the system named is Enterococcus faecalis. The data set can be described thus: Antibacterial activity against Enterococcus faecalis ATCC 29212 assessed as reduction in microbial growth after 24 hrs by two-fold serial dilution method. It counts as functional.
The subject of data set [35] is Streptococcus pneumoniae. The data set is described as follows: Antibacterial activity against Streptococcus pneumoniae ATCC 49619 assessed as inhibition of bacterial growth measured after 24 hrs by MH broth based assay. In kind it is functional.

Usually MIC stands for the lowest concentration that inhibits growth of the organism. In the case of `O=C(CO)N1CC=C(c2ccc(N3C[C@H](COc4cnsn4)OC3=O)cc2F)CC1`, the MIC in [1] amounted to 0.13 µg/mL (≈ 0.299 µM).

On to `C/C(S)=N\C[C@H]1CN(c2cc(F)c3c(c2)OC[C@@H]2CCCN32)C(=O)O1`, for which the MIC in [2] stood at 0.5 µg/mL (≈ 1.37 µM).

Consider `O=C1O[C@@H](COc2ccon2)CN1c1ccc(C2=CCOCC2)c(F)c1`, for which, in data set [3], the MIC came out at 0.5 µg/mL.

`O=C(NO)[C@@H]1CN(c2ccc(C#CC#CC3CC3)c(F)c2)C(=O)O1`: the MIC in [4] and in data set [5] was 0.004 µg/mL (≈ 0.0122 µM) each time.

As for `O=C1O[C@@H](Cn2ccnn2)CN1c1ccc(N2CCN(S(=O)(=O)c3cccc([N+](=O)[O-])c3)CC2)c(F)c1`, the MIC in [6] worked out at 0.5 µg/mL.

A word on the IC50: it is the concentration that gives 50% inhibition. On to `O=C1NC2(CO1)O/C(=C\c1ccc(Cl)cc1)C(=O)N2CCCNc1ccnc2cc(Cl)ccc12` (configuration not stated), for which the results for the IC50 in data set [7] and in [8] were 16.1 µM and 32.4 µM, respectively.

Consider `CC(=O)NC[C@H]1CN(c2ccc(N3CCN(C(=O)/C=C/c4ccco4)CC3)nc2)C(=O)O1`, for which the MIC in [9] and in [10] was 8 µg/mL (≈ 18.2 µM) in each case.

Regarding `O=C([C@H](O)CO)N1CC=C(c2ccc(N3C[C@H](COc4cnsn4)OC3=O)cc2F)CC1`, the MIC in data set [1] was 0.13 µg/mL (≈ 0.28 µM).

On to `CC(=O)NC[C@H]1CN(c2ccc(N3CCN(C(=O)c4ccco4)CC3)nc2)C(=O)O1`, for which the MIC in data set [11] is above 64 µg/mL.

Turning to `CC(=O)NC[C@H]1CN(c2cnc(N3CCN(C(=O)/C=C/c4ccco4)CC3)c(F)c2)C(=O)O1`, the MIC in data set [12] amounted to 4 µg/mL (≈ 8.74 µM).

For the compound `O=C([C@H](O)CO)N1CC=C(c2ccc(N3C[C@H](COc4ccon4)OC3=O)cc2F)CC1`, the MIC in data set [13] is 0.25 µg/mL.

For orientation: ED50 means the dose at which the effect has come halfway, by size or by number of responders. For the compound `CC(=O)NC[C@H]1CC(c2ccc(C3=CCN(C(=O)CO)CC3)c(F)c2)=NO1`, the ED50 in [14] came out at 9.1 mg/kg. Also, the MIC in [15] was 1 µg/mL (≈ 2.66 µM).

Turning to `O=C1C=CN(c2c(F)cc(N3C[C@H](CNc4ccon4)OC3=O)c(F)c2F)CC1` [CONTEZOLID], the MIC in [16] was 0.125 µg/mL (≈ 0.306 µM); in data set [17] it was 0.5 µg/mL (≈ 1.22 µM).

For `CN1CCN(c2ccc(N3C[C@H](CO)OC3=O)cc2F)C=N1` [DELPAZOLID], in data set [18], the MIC was found to be 0.5 µg/mL (≈ 1.62 µM).

As usually defined, the clearance is the volume of plasma or blood freed of the substance per unit of time. Read a low clearance as a low capacity for elimination. As to `CC(=O)NC[C@H]1CN(c2ccc(N3CCOCC3)c(F)c2)C(=O)O1` [LINEZOLID], the clearance in data set [19] was determined as 10.5 mL/min/kg. Moreover, the MIC in data set [20] and in [21] was 1 µg/mL (≈ 2.96 µM) in each case.

Consider `O=C([C@@H](O)CO)N1CC=C(c2c(F)cc(N3C[C@H](COc4ccon4)OC3=O)cc2F)CC1` [POSIZOLID], for which the MIC in [13] was 0.25 µg/mL.

In the case of `CC(=O)NC[C@H]1CN(c2ccc(-c3ccc(CNCc4cnn[nH]4)cc3)c(F)c2)C(=O)O1` [RADEZOLID], the MIC in data set [22] was found to be 1 µg/mL (≈ 2.28 µM); in data set [23], 0.25 µg/mL (≈ 0.57 µM); in data set [24] it was 0.25 µg/mL. For the same compound, the MIC90 was determined as 0.5 µg/mL (≈ 1.14 µM) in data set [25] and 1 µg/mL (≈ 2.28 µM) in [26].

On to `CC(=O)NC[C@H]1CN(c2ccc(N3CCSCC3)c(F)c2)C(=O)O1` [SUTEZOLID], for which the minimum inhibitory concentration (MIC) in data set [27] came to 0.125 µg/mL (≈ 0.354 µM).

Turning to `COC(=O)NC[C@H]1CN(c2ccc(N3CC4(COC4)C3)c(F)c2)C(=O)O1` [TBI-223], the MIC in [28] amounted to 0.6 µg/mL (≈ 1.64 µM). The compound further registered an IC50 in data set [29] above 74 µM.

The term MIC50 denotes an inhibitory concentration at the 50% level, which refers to growth in some studies and to a panel of isolates in others. Take `Cn1nnc(-c2ccc(-c3ccc(N4C[C@H](COP(=O)(O)O)OC4=O)cc3F)cn2)n1` [TEDIZOLID PHOSPHATE]: the MIC50 in data set [30] worked out at 0.12 µg/mL. Further, the MIC90 in data set [31] was 0.12 µg/mL. Moreover, the MIC in [32], in data set [33], in [34] and in data set [35] was 0.25 µg/mL throughout.
